Measured values reported in patent US11945806B2, “Stabilization of amyloidogenic immunoglobulin light chains” (The Scripps Research Institute, priority 2019, dated 2024).

These compounds were tested against WIL-FL (Homo sapiens, UniProt P01721) (assay: Unlabeled LC Protease Sensitivity Assay (proteinase K)). Settings: small molecule 10 μM, WIL-FL 5 μM, proteinase K 50 nM, 2 hours at 37° C.
Assay type: biochemical
Description: Unlabeled LC Protease Sensitivity Assay. WIL-FL (5 μM) in phosphate-buffered saline (PBS, pH 7.4)+0.02% Pluronic F-127 was incubated with proteinase K (50 nM) with small molecule (10 μM) in 1% DMSO vehicle, or vehicle alone. After 2 hours at 37° C., reactions were quenched with 2 mM phenylmethyl sulfonyl fluoride in methanol and centrifuged at 14,000 rpm for 2 minutes. Remaining WIL-FL was quantified by injecting 10 μL of the supernatant into a Waters Acquity H-Class Bio-UPLC (ultra performance liquid chromatography) instrument equipped with a BEH200 analytical size-exclusion column (1.7 μm, 4.6×150 mm) under isocratic conditions (0.2 mL/min, PBS+1 mM EDTA, 2400 psi backpressure, 15 min), monitoring absorbance at 280 nm. Activity of each compound is given as fold protection from protease=(A_compound−A_vehicle)/(A_no_protease−A_vehicle), where each “A” corresponds to peak integration of the respective treatment.

Structure (SMILES)	Protection (fold protection of LC from protease)
CCN(CC)c1ccc2c(C)c(CCOC(=O)N3CCN(S(=O)(=O)C4CC4)CC3)c(=O)oc2c1 [Compound 107, 2-(7-(diethylamino)-4-methyl-2-oxo-2H-chromen-3-yl)ethyl 4-(cyclopropylsulfonyl)piperazine-1-carboxylate]	A (A < 0.3))
CCN(CC)c1ccc2c(C)c(CCOC(=O)N3CC(F)(F)C3)c(=O)oc2c1 [Compound 108, 2-(7-(diethylamino)-4-methyl-2-oxo-2H-chromen-3-yl)ethyl 3,3-difluoroazetidine-1-carboxylate]	A (A < 0.3))
CCN(CC)c1ccc2c(C)c(CCOC(=O)N3CCN(c4cnccn4)CC3)c(=O)oc2c1 [Compound 109, 2-(7-(diethylamino)-4-methyl-2-oxo-2H-chromen-3-yl)ethyl 4-(pyrazin-2-yl)piperazine-1-carboxylate]	A (A < 0.3))
CCN(CC)c1ccc2c(C)c(CCOC(=O)N3CC4(C3)CS(=O)(=O)C4)c(=O)oc2c1 [Compound 110, 2-(7-(diethylamino)-4-methyl-2-oxo-2H-chromen-3-yl)ethyl 2-thia-6-azaspiro[3.3]heptane-6-carboxylate 2,2-dioxide]	B (3 ≤ B < 0.6)
CCN(CC)c1ccc2c(C)c(CCOC(=O)N3CCC(C)(O)C3)c(=O)oc2c1 (stereo not drawn) [Compound 111, 2-(7-(diethylamino)-4-methyl-2-oxo-2H-chromen-3-yl)ethyl 3-hydroxy-3-methylpyrrolidine-1-carboxylate]	A (A < 0.3))
CCN(CC)c1ccc2c(C)c(CCOC(=O)N3CCS(=O)(=O)CC3)c(=O)oc2c1 [Compound 112, 2-(7-(diethylamino)-4-methyl-2-oxo-2H-chromen-3-yl)ethyl thiomorpholine-4-carboxylate 1,1-dioxide]	A (A < 0.3))
CCN(CC)c1ccc2c(C)c(CCOC(=O)N3CCN(c4cc(C)no4)CC3)c(=O)oc2c1 [Compound 113, 2-(7-(diethylamino)-4-methyl-2-oxo-2H-chromen-3-yl)ethyl 4-(3-methylisoxazol-5-yl)piperazine-1-carboxylate]	A (A < 0.3))
CCN(CC)c1ccc2c(C)c(CCOC(=O)N3CCN(c4ccccn4)CC3)c(=O)oc2c1 [Compound 114, 2-(7-(diethylamino)-4-methyl-2-oxo-2H-chromen-3-yl)ethyl 4-(pyridin-2-yl)piperazine-1-carboxylate]	A (A < 0.3))
CCN(CC)c1ccc2c(C)c(CCOC(=O)N3CCN(c4nn[nH]n4)CC3)c(=O)oc2c1 [Compound 115, 2-(7-(diethylamino)-4-methyl-2-oxo-2H-chromen-3-yl)ethyl 4-(2H-tetrazol-5-yl)piperazine-1-carboxylate]	A (A < 0.3))
CCN(CC)c1ccc2c(C)c(CCOC(=O)N3CCN(c4ncccn4)CC3)c(=O)oc2c1 [Compound 116, 2-(7-(diethylamino)-4-methyl-2-oxo-2H-chromen-3-yl)ethyl 4-(pyrimidin-2-yl)piperazine-1-carboxylate]	A (A < 0.3))
CCN(CC)c1ccc2c(C)c(CCOC(=O)NCc3cccc(NC(C)=O)c3)c(=O)oc2c1 [Compound 117, 2-(7-(diethylamino)-4-methyl-2-oxo-2H-chromen-3-yl)ethyl (3-acetamidobenzyl)carbamate]	C (C ≥ 0.6)
CCN(CC)c1ccc2c(C)c(CCOC(=O)N3CCC(Cc4cccnc4)CC3)c(=O)oc2c1 [Compound 118, 2-(7-(diethylamino)-4-methyl-2-oxo-2H-chromen-3-yl)ethyl 4-(pyridin-3-ylmethyl)piperidine-1-carboxylate]	B (3 ≤ B < 0.6)
